What was measured:
[1] = (§1) The drug is tested on WLS-077 corresponding to human gut metagenome with ENA study accession number: PRJEB37062 and ENA sample accession number: ERS12561750 for biotransformation under anaerobic condition. The drug concentrations were measured over 9 timepoints collected between 0 and 24 hours of incubation by liquid-chromatography-coupled mass spectrometry (LC–MS); conditions: 2 µM
[2] = human gut metagenome, 24 h, 2 µM
[3] = human gut metagenome, 24 h, 2 µM; remark: listed apart in the source
[4] = human gut metagenome, 24 h, 2 µM; remark: listed apart in the source
[5] = as §1, with “Z-012” for “WLS-077”, “to” for “to human gut”, “ERS12561812” for “ERS12561750”; conditions: 2 µM
[6] = human gut metagenome, 24 h, 2 µM; remark: listed apart in the source
[7] = as §1, with “WLS-098” for “WLS-077”, “ERS12561754” for “ERS12561750”; conditions: 2 µM
[8] = human gut metagenome, 24 h, 2 µM; remark: listed apart in the source
[9] = human gut metagenome, 24 h, 2 µM; remark: listed apart in the source
[10] = human gut metagenome, 24 h, 2 µM; remark: listed apart in the source
[11] = human gut metagenome, 24 h, 2 µM; remark: listed apart in the source
[12] = as §1, with “Z-017” for “WLS-077”, “mouse” for “human”, “ERS12561816” for “ERS12561750”; conditions: 2 µM
[13] = as §1, with “WLS-007” for “WLS-077”, “ERS12561742” for “ERS12561750”; conditions: 2 µM
[14] = as §1, with “Z-008” for “WLS-077”, “to” for “to human gut”, “ERS12561808” for “ERS12561750”; conditions: 2 µM
[15] = as §1, with “Z-006” for “WLS-077”, “mouse” for “human”, “ERS12561806” for “ERS12561750”; conditions: 2 µM
[16] = as §1, with “Z-025” for “WLS-077”, “rabbit” for “human”, “ERS12561824” for “ERS12561750”; conditions: 2 µM
[17] = as §1, with “Z-013” for “WLS-077”, “rabbit” for “human”, “ERS12561813” for “ERS12561750”; conditions: 2 µM
[18] = as §1, with “Z-018” for “WLS-077”, “pig” for “human”, “ERS12561817” for “ERS12561750”; conditions: 2 µM
[19] = as §1, with “Z-021” for “WLS-077”, “to” for “to human gut”, “ERS12561820” for “ERS12561750”; conditions: 2 µM
[20] = human gut metagenome, 24 h, 2 µM; remark: listed apart in the source

Measured: Bacterial Biotransformation
Further: call rule not given here.

CNS(=O)(=O)Cc1ccc2[nH]cc(CCN(C)C)c2c1.O=C(O)CCC(=O)O [SUMATRIPTAN SUCCINATE]
Compound metabolized: [7] | [8] | [10]
Compound NOT metabolized: all other assays above

CC(C)(C#N)c1cc(Cn2cncn2)cc(C(C)(C)C#N)c1 [ANASTROZOLE]
Compound metabolized: [2] | [7] | [19]
Compound NOT metabolized: all other assays above

Cc1ccc(S(=O)(=O)NC(=O)NN2CC3CCCC3C2)cc1 (stereo not given) [GLICLAZIDE]
Compound NOT metabolized: [6] | [12] | [13] | [14] | [16] | [17] | [19]
Compound metabolized: all other assays above

CCN(CC)CCOCCOC(=O)C1(c2ccccc2)CCCC1.O=C(O)CC(O)(CC(=O)O)C(=O)O [CARBETAPENTANE CITRATE]
Compound metabolized: [1] | [2] | [3] | [6] | [7] | [8] | [10] | [18] | [19] | [20]
Compound NOT metabolized: all other assays above

Cc1ccc(S(=O)(=O)NC(=O)NN2CCCCCC2)cc1 [TOLAZAMIDE]
Compound NOT metabolized: [2] | [12] | [14]
Compound metabolized: all other assays above

CN/C(=N/CCSCc1nc[nH]c1C)NC#N [CIMETIDINE]
Compound metabolized: [1] | [2] | [5] | [6] | [7] | [8] | [10] | [18]
Compound NOT metabolized: all other assays above

COc1c(C)c2c(c(O)c1C/C=C(\C)CCC(=O)OCCN1CCOCC1)C(=O)OC2 [MYCOPHENOLATE MOFETIL]
Compound metabolized: all assays above

CC(CN(C)C)CN1c2ccccc2CCc2ccccc21.O=C(O)/C=C\C(=O)O (stereo not given) [TRIMIPRAMINE MALEATE]
Compound metabolized: [2] | [5] | [6] | [7] | [8] | [10] | [13]
Compound NOT metabolized: all other assays above

Reference: ChEMBL document CHEMBL5724914, “Linking interpersonal differences in gut microbiota composition and drug biotransformation activity” (2024)
